Results from patent US5000936A, “Methods for locally-treating allergic disorders with pharmaceutical preparations containing N-acetyl-aspartyl glutamic acid or its salts” (THEA (Therapeutique et Applications) S.A., priority 1983, dated 1991).
Counter-ions that a name gives are not always drawn. Where a SMILES comes first, the peptide text is derived from it.

What was measured:
[1] = metabolism after oral and parenteral administration (statement); format: in vivo; details: oral and parenteral routes of administration
[2] = test system: mast cells of the nasal mucosa; assay: mast cell degranulation of nasal mucosa of guinea pig by instillation of 48/80; format: in vivo
Description: The test is based on the determination by microscopy of the number of granulated mast cells per unit area in the nasal mucosa of the guinea pig, and on the study of the administration of a histamine releasing substance --48/80--on this number of mast cells. Guinea pigs receive in each nostril, twice daily during 3 days. 0.1 ml of the product under investigation, 15 minutes before the nasal instillation of 0.1 ml of 48/80 in solution at 2 % concentration; the animals are sacrificed 1 hour after the last instillation.
After sacrifice, the nasal mucosa is removed, then fixed and stained with toluidine blue to allow selective staining of the granulated mast cells. For each animal, the mast cells contained in 100 microscopic fields are counted by microscopy.

allergic conjunctivitis = assay: trial on allergic conjunctivitis in the rabbit; format: in vivo; details: n = 12 eyes
Description: The experimental protocol has been established according to works by OKADA et al. (OKADA-SHIMADA, Invest. Ophthalmol. Vis. Sc. 1980, 19 2, 176-181).
The model of allergic conjunctivitis used consists in effecting a conjunctival immunization in rabbits by local injection of rabbit antibodies to bovine gammaglobulins. The conjunctivitis is then triggered by the inflammation of allergic origin thus provoked are observed as an increase in the weight of the conjunctiva, and as enhancement of the conjunctival capillary permeability to iodine-125 labeled rabbit serum albumin injected intravenously before the injection of the antigen.
Two hours after the injection of bovine gammaglobulins, the rabbits are sacrificed, and then the eyes are removed and the conjunctiva dissected out, weighed and submitted to radioactive counting.
Three parameters are recorded:
the weight of the conjunctiva,
the blood conjunctiva permeability index, evaluated as the ratio of the radioactivity of 1 mg of conjunctiva to that of 1 ml of blood,
the quantity of labeled serum albumin recovered in the conjunctiva.
To evaluate the protective effect of the preparation under investigation, several batches of six rabbits are formed, which receive 6 instillations of 2 eye-drops in each eye daily for 3.5 days before the injection of labeled serum albumin.
One batch of six normal rabbits, not tested and not subjected to provacation of the allergy, is also formed ("blank" batch), as well as a batch of six control rabbits receiving instillations of physiological serum before the triggering of the conjunctivitis ("conjunctivitis controls").

[3] = test system: perennial allergic rhinitis; assay: double-blind cross-over clinical study in perennial allergic rhinitis (Example XIII); format: in vivo, patients; details: 2 sprays per nostril, 5 times per day, 2 weeks
Description: The aim of the present study was to determine the efficacy and tolerance of the composition according to example II.2., in the treatment of allergic rhinitis. For this purpose, a double-blind trial was undertaken versus a reference drug: disodium Cromoglycate in a 2 % nasal solution. The study involved 34 patients, suffering from perennial allergic rhinitis. Each patient was included in a cross-over treatment protocol, according to which the two drugs compared were administered successively during 2 treatment periods of 2 weeks each, at the dose of 2 sprays per nostril, 5 times per day.

[4] = test system: sub-acute and chronic atopic conjunctivitis; assay: clinical study in sub-acute and chronic atopic conjunctivitis (Example XII); format: in vivo; details: 27 patients; at least one year on 2 % Cromoglycate, then two months 4 % NAAGA eye-drops four times daily
Description: Twenty seven patients suffering from sub-acute and chronic atopic conjunctivitis who were treated for at least one year on 2 % Cromoglycate eye-drops, were switched from Cromoglycate treatment to 4 % NAAGA eye-drops four times daily. Before and after two months treatment period with composition according to example I.2., the patients were checked objectively in order to score the severity of conjunctival livid hyperemia and the amount of exudate. Subjectively the patients were asked to assess the symptoms of itching, burning and photophobia. Objective and subjective assessments were scored by means of visual analog scales.

[5] = test system: chronic allergic conjunctivitis; assay: double blind clinical study in chronic allergic conjunctivitis (Example IX); format: in vivo, patients
Description: The trial was performed in double blind. The objective was to determine the effects of the composition according to Example I.2.: an ophthalmic solution at 4 % concentration, on the ocular symptoms and inflammatory conjunctival signs of patients suffering from chronic allergic conjunctivitis, compared with the sodium cromoglycate in ophthalmic solution at 2 % concentration used in therapy. The results of this comparative study concern 33 patients, of both sexes, who were distributed randomly into two groups: received the composition according to Example I.2. during 2 weeks at the rate of 1 drop in each eye to be treated, 3 to 5 times daily. These patients then received sodium cromoglycate in eye-drops at 2 % concentration (commercial eye-drops) during two supplementary weeks and at the same dosage, 16 patients received the same eye-drops in the reverse order and for the same lengths of time. The random assortment of the patients ensured good homogeneity in the distribution between the two treatment groups, not only in respect of the clinical characteristics, but also in respect of the duration of administration of the eye-drops under trial, and the use of concomitant treatments.

ciliary movement = assay: acute tolerance on ciliary movement, overall verdict; format: cell-based, guinea pigs or rabbits; details: contact times which exceed 20 minutes
Description: The technique used has been described under the name of microphotooscillography (L. G. CHEVANCE, J. F. LENNON: Etude des rythmes du battement ciliare (Study of rhythms of ciliary beating) Acta Otolaryng., 1970-70, 16-28)). In this study, guinea pigs or rabbits were used which were free of all clinical sign of infection of the airways. The animals are sacrificed, and then the nasal septum or trachea is dissected out. These tissues are placed in PBS survival medium and the superficial epithelium is removed by scraping, over an area of about 1 mm^2. This sample, which contains numerous ciliated cells in movement, is placed in an observation chamber under a special microscope equipped with a microphotoelectric system permitting the recording of ciliary beats in transillumination.
The measurement consists in recording the fluctuations in the light caused by the image, enlarged 500 times, of a cilium moving in front of the aperture of a diaphragm of suitable dimensions. After amplification, the fluctuations in light are recorded graphically.
Impairments of ciliary movement are translated as a decrease in the frequency of the ciliary beats. […]

CC(=O)N[C@@H](CC(=O)O)C(=O)N[C@@H](CCC(=O)O)C(=O)O [NAAGA, N-acetyl-(alpha, beta)-aspartyl glutamic acid] (Ac-Asp-Glu-OH)
metabolism [1]: rapidly and extensively metabolized

O=C(O)c1cc(=O)c2c(OCC(O)COc3cccc4oc(C(=O)O)cc(=O)c34)cccc2o1 [sodium cromoglycate]
Average number of granulated mast cells per microscopic field ([2]; 0.1 ml in each nostril twice daily during 3 days, 15 minutes before 48/80 at 2 %): 4.6 | protective effect inferior to that of NAAGA by ([2]; 2 % concentration (commercial solution), same experimental condition): about 40% | Quantity of serum albumin in the conjunctiva (allergic conjunctivitis; 6 instillations of 2 eye-drops in each eye daily for 3.5 days, mean ± spread): 34.5 ± 13.6 µg | Weight of the conjunctiva (allergic conjunctivitis): 411 ± 64 mg | Blood-conjunctiva index (× 100) (allergic conjunctivitis; ratio of radioactivity of 1 mg of conjunctiva to that of 1 ml of blood, × 100): 4.7 ± 1.8 | Nasal and systemic tolerance [3]: good and no side-effects were seen | patients with results of treatment considered to be good [3]: 61% | frequency of marginal objective control [4]: 33% | frequency of marginal subjective control [4]: 37% | patients with improvement in the ocular symptoms ([5]; 1 drop in each eye 3 to 5 times daily, 2 weeks per product, 33 patients): more than 65% | preferences expressed by the patients ([5]; cross-over comparison of the two eye-drops): 33%

CC(=O)N[C@@H](CC(=O)O)C(=O)N[C@@H](CCC(=O)O)C(=O)O [sodium salt] (Ac-Asp-Glu-OH)
acute tolerance on ciliary movement versus criterion (not more than 50% decrease after twenty minutes) (ciliary movement): Analogous results
